# Source: patent US20150366962A1 (priority 2014, published 2015)
# Legend:
# [1] = system: B/Florida/04/2006 (Yamagata lineage); design: species or system BALB/c mice; details: mouse, in vivo
# [2] = system: A/Brisbane/59/2007 (H1N1), A/Uruguay/716/2007 (H3N2), B/Brisbane/60/2008; test: Fluzone immunization: serum IgG to the vaccine's viral components; assay type: in vivo, BALB/c mice; details: 50 ng/HA 2009-2010 Fluzone, 3 weeks
# OT-II splenocytes = test: Intracellular IFNγ in CD4 T cells of OT-II splenocytes; assay type: cell-based, mice; details: for intracellular IFNγ expressing CD4 T cells: alone, OVA323-339, 3 days
# Protocol: (§1) To evaluate whether 1Z105 can enhance the proinflammatory cytokine induction by 1V270, BMDC (C57BL/6) were incubated with 1V270 (0.025, or 0.1 μM) in the presence or absence of 1Z105 (5 μM). […] Antigen presenting function was evaluated using splenocytes prepared from OVA MHC class II-restricted alpha beta T cell receptor (TCR) transgenic mice OT-II. Splenocytes were cultured with OVA peptide (OVA323-339) for 3 days with 1Z105, or 1V270 alone or in combination. The frequency of intracellular (IC) IFNγ expressing CD4 T cells was determined by flow cytometric assay. Treatment with 1V270 alone increased intracellular IFNγ (3.7 and 6.8% by 25 and 100 nM, respectively).
# OVA = OVA immunization: splenocyte IFN-γ ELISA and ELISpot; assay type: in vivo, C57BL/6 mice
# Protocol: AddaVax and vehicle were used as controls. The sera were collected on day 35, and the serum IgG1 (A) and IgG2c (B) levels were tested. (C) Splenocytes were incubated with OVA (100 μg/ml) for 3 days, and IFN-γ levels in the culture supernatants were determined by ELISA. Data were pooled from three experiments showing similar trends. (D and E) Myd88^−/−, Tri^flps/lps, or wild-type mice (n=8/group) were i.m. immunized with ovalbumin mixed with the indicated adjuvant or vehicle in a 50-μl volume on days 0 and 14. On day 35, splenocytes were incubated with OVA MHC class I peptides (OVA257-264) (D) or class II peptides (OVA323-339) (E) overnight, and IFN-γ-producing cells were detected by ELISpot assay. The data shown are pooled from 2 or 3 independent experiments showing similar trends. *, P 0.05 compared to no adjuvant (A to C) or the WT (D and E) by one-way ANOVA with Dunnett's post hoc testing.
# Vehicle (10% DMSO in saline) and AddaVax (1:1 ratio with antigen in saline) were used as controls. Sera were collected on days 0, 7, 14, 21, 28, and 35. Mice were sacrificed on day 35, and the spleens were harvested. Approximately 2.5×10^6/ml spleen cells was dispersed into round-bottom microtiter plates in triplicate in a total volume of 200 μl complete RPMI 1640 and restimulated with either 100 μg/ml OVA or medium alone. The cultures were then incubated at 37° C., 5% CO2, and the supernatants were harvested after 72 h. The levels of gamma interferon (IFN-γ) in the culture supernatants were measured by ELISA (BD Bioscience, San Jose, Calif.) according to the manufacturer's instructions. In parallel, splenocytes were stimulated with 10 μg/ml OVA class I (OVA257-264) or class II (OVA323-339) peptide on anti-IFN-γ antibody-coated enzyme-linked immunospot (ELISpot) plates for 18 h. The results are reported as numbers of IFN-spot-forming cells (SFC) per million cells as described below.
# [3] = in EV3 and EV7; requested 0.22-0.44 mg/mL
# [4] = system: Mouse bone marrow-derived dendritic cells (mBMDCs); test: Costimulatory-molecule (CD40, CD86) expression in mouse BMDCs; assay type: cell-based, C57BL/6 mice
# Protocol: (A) Upregulation of antigen uptake by 1Z105. BMDCs prepared from C57BL/6 mice were incubated with 10 μM 1Z105 or MPLA overnight. Antigen, Alexa Fluor 488-conjugated ovalbumin (OVA-488), was added to the culture for the last 30 min of incubation. The cells were washed and stained for CD11c. OVA-associated dendritic cells in the CD11c^hi population were evaluated by flow cytometry. Cells incubated at 4° C. served as a negative control. (B and C) Enhancement of expression of costimulatory molecules by 1Z105.WT (B) or Tlr4^−/− (C) BMDCs were incubated with 1Z105 (10 or 2 μM) or MPLA (0.04 μg/ml) overnight, and expression of CD40 and CD86 was assessed by flow cytometric assay. (D) 1Z105 promotes antigen cross-presentation. Wild-type BMDCs were incubated with 1Z105 (2 μM) overnight, and OVA (10 μg/ml) was added to the culture for the last 4 h of incubation. […] OT-1 T-cell proliferation was monitored by flow-cytometric assay. […] Cytokine release of IL-1β, IL-6, IL-8, IL-12p70, and TNF-α was determined by Luminex bead assay. […]
# Mouse bone marrow-derived dendritic cells (mBMDCs) were prepared from wild type or Tlr4^−/− C57BL/6 mice. mBMDCs (10^5 cells per well) were plated in 96-well plates in 200 μl of complete RPMI 1640. […] The cells were stained for CD11c, and OVA uptake and expression of CD40 and CD86 in the CD11chi-gated population was determined by flow cytometry.
# BMDC (C57BL/6) = test: IL-6 and IP-10 release by BMDC with 1V270 with or without 1Z105; assay type: cell-based, C57BL/6 mice; details: 1V270 0.025 or 0.1 μM with 1Z105 5 μM
# Protocol: as §1
SMILES,mortality compared to the no-adjuvant group [1],seroresponse to the three viral components of Fluzone (ELISA) [2],intracellular IFNγ expressing CD4 T cells (OT-II splenocytes; 25 nM) [%],intracellular IFNγ expressing CD4 T cells (OT-II splenocytes; 100 nM) [%],dependence of increased antigen-specific T cell frequencies on MyD88 and TRIF (OVA; Myd88-/- and TrifLps2/Lps2 versus wild-type mice),"frequencies of IFN-γ-releasing T cells specific for OVA class I peptide (ELISpot) (OVA; OVA257-264, day 35 splenocytes)","frequencies of IFN-γ-releasing T cells specific for OVA class II peptide (ELISpot) (OVA; OVA323-339, day 35 splenocytes)","OVA-specific IFN-γ release by T cells restimulated ex vivo (OVA; splenocytes, OVA 100 μg/ml, 3 days, ELISA)",solubility of 1V270 [3],surface expression of CD40 and CD86 ([4]; TLR4-deficient (Tlr4-/-) BMDCs),"surface expression of CD40 and CD86 ([4]; WT BMDCs, 1Z105 10 or 2 μM, MPLA 0.04 μg/ml, overnight)",frequency of IFNγ-producing cells (OT-II splenocytes; 1Z105 in combination with 1V270),IL-6 release induced by 1V270 (BMDC (C57BL/6)),IP-10 release induced by 1V270 (BMDC (C57BL/6))
CCCCCCCCC=CCCCCCCCC(=O)OCC(COP(=O)(O)OCCNC(=O)c1ccc(Cn2c(=O)[nH]c3c(N)nc(OCCOC)nc32)cc1)OC(=O)CCCCCCCC=CCCCCCCCC (stereo not drawn) [Compound 1V270],significantly reduced,enhanced the seroresponse to all three viral components,3.7,6.8,partially dependent upon the MyD88 and TRIF pathways,increased frequencies,increased frequencies,promoted OVA-specific IFN-γ release,achieved to the requested concentration,–,–,–,–,–
Cn1c2ccccc2c2nc(SCC(=O)NC3CCCCC3)n(-c3ccccc3)c(=O)c21 [Compound 1Z105],–,enhanced the seroresponse to all three viral components,–,–,–,–,–,–,–,not observed,increased the surface expression of CD40 and CD86 at levels similar to that of MPLA,additively increased,significantly enhanced,significantly enhanced
